In US20050137259A1, “Insulin secretion potentiator” (Use- Techno Corporation, priority 2003, published 2005):

Experiments:
Type in all cases: in vivo, human
[1] = test system: borderline diabetic patients; test: Glucose tolerance test (75 g glucose), blood insulin level (IRI), double-blind crossover; conditions: 10 mg oral, 31 borderline diabetic patients, p<0.05
Description: A glucose tolerance test was performed after administration of corosolic acid or a placebo, in a double-blind crossover manner, and the blood insulin level (IRI: immunoreactive insulin) was assayed.
(§1) First, 31 borderline diabetic patients as test subjects were orally administered corosolic acid (10 mg, >99% purity) or a placebo, and blood was sampled immediately thereafter with the blood insulin level at that time designated as the value at 0 minutes. Immediately after blood sampling, 75 g of glucose was orally administered to each test subject to start a glucose tolerance test, and blood was sampled after periods of 30 minutes, 60 minutes, 90 minutes, 120 minutes and 180 minutes for measurement of the blood insulin level.
FIG. 1 is a graph showing the blood insulin levels during the glucose tolerance test. The horizontal axis represents time (min) after start of the glucose tolerance test, and the vertical axis represents IRI (μU/mL). In the graph, (a) is a case with administration of corosolic acid and (b) is a case with administration of the placebo.

[2] = test system: borderline diabetic patients; test: Glucose tolerance test (75 g glucose), blood glucose level (plasma glucose concentration), double-blind crossover; conditions: 10 mg oral, 35 borderline diabetic patients, p<0.05
Description: The following test was conducted to confirm that corosolic acid has a hypoglycemic effect. A glucose tolerance test was performed after administration of corosolic acid, banaba extract or a placebo, in a double-blind crossover manner, and the blood glucose level (plasma glucose concentration) was assayed.
as §1, with “35” for “31”, “purity), banaba extract (trade name: COROSOLIA M, product of Use Techno Corporation; administered at 10 mg of corosolic acid)” for “purity)”, “glucose” for “insulin”
FIG. 2 is a graph showing blood glucose levels during the glucose tolerance test. The horizontal axis represents time (min) after start of the glucose tolerance test, and the vertical axis represents plasma glucose concentration (mg/dL). In the graph, (c) is a case with administration of corosolic acid, (d) is a case with administration of banaba leaf extract and (e) is a case with administration of the placebo.

[3] = test system: borderline diabetic patients; test: Blood glucose and blood insulin levels after administration in the absence of glucose load (fasted), crossover double-blind; conditions: single 10 mg dose; for blood glucose level (G) / blood insulin level (I): fasted, no glucose load; for blood insulin level (I): unit assumed
Description: Three borderline diabetic patients (person, person and person) were instructed to fast from 8:00 pm (to ensure absence of glucose load), and were administered a placebo once or the test agent (corosolic acid) once at 9:00 am on the following day, after which the changes in blood glucose level and blood insulin level were measured. The participants were given absolutely no information regarding placebo or test agent (crossover, double-blind). The corosolic acid was administered in a single 10 mg dose, and each test was conducted twice.
FIG. 3 is a graph showing changes in blood glucose levels with administration of corosolic acid and a placebo in the absence of a glucose load, and FIG. 4 is a graph showing changes in blood insulin levels with administration of corosolic acid and a placebo in the absence of a glucose load.

[4] = 120 minutes after start of glucose tolerance test

C[C@H]1[C@H](C)CC[C@]2(C(=O)O)CC[C@]3(C)C(=CC[C@@H]4[C@@]5(C)C[C@@H](O)[C@H](O)C(C)(C)[C@@H]5CC[C@]43C)[C@H]12 [corosolic acid]
blood insulin level compared to placebo ([1]; 30 minutes after start of glucose tolerance test): significant increase | blood insulin level compared to placebo [1, 4]: significant drop | blood glucose level compared to placebo ([2]; 90 minutes after start of glucose tolerance test): significant decrease | blood glucose level compared to placebo [2, 4]: significant decrease | blood glucose levels, corosolic acid versus placebo ([3]; absence of glucose load, FIG. 3): no significant difference | blood insulin levels, corosolic acid versus placebo ([3]; absence of glucose load, FIG. 4): no significant difference | blood glucose level (G) ([3]; participant A, after 0 min): 110 mg/dL | blood insulin level (I) ([3]; participant A, after 0 min): 9 µU/mL | blood glucose level (G) ([3]; participant A, after 30 min): 104 mg/dL | blood insulin level (I) ([3]; participant A, after 30 min): 6.9 µU/mL | blood glucose level (G) ([3]; participant A, after 60 min): 107 mg/dL | blood insulin level (I) ([3]; participant A, after 60 min): 6.6 µU/mL | blood glucose level (G) ([3]; participant A, after 90 min): 104 mg/dL | blood insulin level (I) ([3]; participant A, after 90 min): 5.9 µU/mL | blood glucose level (G) ([3]; participant A, after 120 min): 104 mg/dL | blood insulin level (I) ([3]; participant A, after 120 min): 6.6 µU/mL | blood glucose level (G) ([3]; participant A, after 180 min): 102 mg/dL | blood insulin level (I) ([3]; participant A, after 180 min): 5.1 µU/mL | blood glucose level (G) ([3]; participant B, after 0 min): 144 mg/dL | blood insulin level (I) ([3]; participant B, after 0 min): 2.5 µU/mL | blood glucose level (G) ([3]; participant B, after 30 min): 143 mg/dL | blood insulin level (I) ([3]; participant B, after 30 min): 2.6 µU/mL | blood glucose level (G) ([3]; participant B, after 60 min): 147 mg/dL | blood insulin level (I) ([3]; participant B, after 60 min): 3 µU/mL | blood glucose level (G) ([3]; participant B, after 90 min): 149 mg/dL | blood insulin level (I) ([3]; participant B, after 90 min): 2 µU/mL | blood glucose level (G) ([3]; participant B, after 120 min): 150 mg/dL | blood insulin level (I) ([3]; participant B, after 120 min): 3.4 µU/mL | blood glucose level (G) ([3]; participant B, after 180 min): 146 mg/dL | blood insulin level (I) ([3]; participant B, after 180 min): 2.4 µU/mL | blood glucose level (G) ([3]; participant C, after 0 min): 90 mg/dL | blood insulin level (I) ([3]; participant C, after 0 min): 4.5 µU/mL | blood glucose level (G) ([3]; participant C, after 30 min): 90 mg/dL | blood insulin level (I) ([3]; participant C, after 30 min): 4.1 µU/mL | blood glucose level (G) ([3]; participant C, after 60 min): 88 mg/dL | blood insulin level (I) ([3]; participant C, after 60 min): 3.9 µU/mL | blood glucose level (G) ([3]; participant C, after 90 min): 86 mg/dL | blood insulin level (I) ([3]; participant C, after 90 min): 4.9 µU/mL | blood glucose level (G) ([3]; participant C, after 120 min): 86 mg/dL | blood insulin level (I) ([3]; participant C, after 120 min): 4 µU/mL | blood glucose level (G) ([3]; participant C, after 180 min): 81 mg/dL | blood insulin level (I) ([3]; participant C, after 180 min): 4 µU/mL
